According to publication PMC7066893 (Aging (Albany NY), 2020):

Biological target: T1, P-glycoprotein (P-gp) (Homo sapiens, UniProt P08183)
T1 construct: gene ABCB1
Test: Pgp-Glo luminescent P-gp ATPase assay; inhibition of paclitaxel-stimulated ATPase at […]
Assay type: biochemical

T1 sequence (P08183 whole entry): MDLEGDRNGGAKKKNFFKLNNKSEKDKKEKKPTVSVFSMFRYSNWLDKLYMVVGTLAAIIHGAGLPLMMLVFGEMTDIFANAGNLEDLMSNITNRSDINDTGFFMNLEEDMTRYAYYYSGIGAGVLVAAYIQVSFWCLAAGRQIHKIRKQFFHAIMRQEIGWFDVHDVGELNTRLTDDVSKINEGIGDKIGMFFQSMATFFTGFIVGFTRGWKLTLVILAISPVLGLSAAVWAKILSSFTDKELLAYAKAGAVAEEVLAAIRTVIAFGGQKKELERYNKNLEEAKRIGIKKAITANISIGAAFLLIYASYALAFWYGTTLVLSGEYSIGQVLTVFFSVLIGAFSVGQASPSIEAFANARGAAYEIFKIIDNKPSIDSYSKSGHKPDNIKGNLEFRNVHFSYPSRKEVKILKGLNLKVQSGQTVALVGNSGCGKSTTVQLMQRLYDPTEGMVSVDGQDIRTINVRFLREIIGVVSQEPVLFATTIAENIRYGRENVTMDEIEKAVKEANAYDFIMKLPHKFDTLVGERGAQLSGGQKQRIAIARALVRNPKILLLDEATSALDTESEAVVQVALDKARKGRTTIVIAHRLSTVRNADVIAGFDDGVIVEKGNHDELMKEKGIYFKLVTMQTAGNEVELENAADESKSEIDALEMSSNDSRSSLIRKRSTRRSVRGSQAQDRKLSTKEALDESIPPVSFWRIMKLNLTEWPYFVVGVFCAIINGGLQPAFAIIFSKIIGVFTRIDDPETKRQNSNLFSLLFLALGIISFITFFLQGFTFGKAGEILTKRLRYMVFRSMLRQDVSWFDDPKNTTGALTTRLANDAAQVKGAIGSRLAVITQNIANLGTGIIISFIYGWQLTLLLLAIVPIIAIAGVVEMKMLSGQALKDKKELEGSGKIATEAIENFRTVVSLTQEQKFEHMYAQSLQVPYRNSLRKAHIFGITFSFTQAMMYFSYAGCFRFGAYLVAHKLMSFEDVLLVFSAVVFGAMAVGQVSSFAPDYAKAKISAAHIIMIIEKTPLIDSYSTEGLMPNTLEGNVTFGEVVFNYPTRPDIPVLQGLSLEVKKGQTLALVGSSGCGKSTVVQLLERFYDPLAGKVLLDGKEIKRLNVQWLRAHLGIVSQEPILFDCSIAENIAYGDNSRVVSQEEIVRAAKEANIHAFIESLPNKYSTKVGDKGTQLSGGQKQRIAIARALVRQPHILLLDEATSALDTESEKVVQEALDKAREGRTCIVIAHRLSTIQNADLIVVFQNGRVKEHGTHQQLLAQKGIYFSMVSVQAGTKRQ

Question: `C/C1=C\[C@@H]2[C@H](CC[C@@]3(C)O[C@@H]3[C@H]3[C@@H](O)[C@@H](C)C[C@]3(OC(=O)/C=C/c3ccccc3)C1=O)C2(C)C` [EM-E-11-4] was tested. Which “Pgp-Glo luminescent P-gp ATPase assay; inhibition of paclitaxel-stimulated ATPas” value did it give?
Answer: These results suggest that EM-E-11-4 hinders P-gp ATPase activity
